Source: ChEMBL document CHEMBL3046083, “Synthesis, characterization and antimicrobial evaluation of novel derivatives of isoniazid” (2012)
Converted amounts (≈) assume the structure as drawn. One block for each compound: values may come before it.

Assays:
Format in all cases: functional
[1] = test system: Staphylococcus aureus; assay: Antimicrobial activity against Staphylococcus aureus ATCC 29213 at 100 ug/ml after 24 to 48 hr by agar diffusion method; conditions: read-out: DIZ
[2] = test system: Staphylococcus aureus; assay: Antimicrobial activity against Staphylococcus aureus ATCC 29213 after 24 hr by broth dilution method; conditions: ATCC 29213, 24 h
[3] = test system: Pseudomonas aeruginosa; assay: Antimicrobial activity against Pseudomonas aeruginosa ATCC […] after 24 hr by broth dilution method
[4] = test system: Candida albicans; assay: Antimicrobial activity against Candida albicans ATCC 10231 by broth dilution method
[5] = test system: Nakaseomyces glabratus; assay: Antimicrobial activity against Candida glabrata ATCC 10233 at 100 ug/ml after 24 to 48 hr by agar diffusion method; conditions: read-out: DIZ
[6] = test system: Pseudomonas aeruginosa; assay: Antimicrobial activity against Pseudomonas aeruginosa ATCC […] at 100 ug/ml after 24 to 48 hr by agar diffusion method; conditions: read-out: DIZ
[7] = test system: Bacillus subtilis; assay: Antimicrobial activity against Bacillus subtilis ATCC […] at 100 ug/ml after 24 to 48 hr by agar diffusion method; conditions: read-out: DIZ
[8] = test system: Candida albicans; assay: Antimicrobial activity against Candida albicans ATCC 10231 at 100 ug/ml after 24 to 48 hr by agar diffusion method; conditions: read-out: DIZ
[9] = test system: Escherichia coli; assay: Antimicrobial activity against Escherichia coli ATCC 25922 after 24 hr by broth dilution method; conditions: ATCC 25922, 24 h
[10] = test system: Nakaseomyces glabratus; assay: Antimicrobial activity against Candida glabrata ATCC 10233 by broth dilution method
[11] = test system: Escherichia coli; assay: Antimicrobial activity against Escherichia coli ATCC 25922 at 100 ug/ml after 24 to 48 hr by agar diffusion method; conditions: read-out: DIZ
[12] = test system: Bacillus subtilis; assay: Antimicrobial activity against Bacillus subtilis ATCC […] after 24 hr by broth dilution method

Compound: CCOc1c(/C=N\NC(=O)c2ccncc2)cccc1CN(CC)CC
zone of inhibition at 100 µg/mL [1]: 21 mm
MIC [2]: 25 µg/mL (≈ 70.5 µM)
MIC50 [2]: 12.8 µg/mL (≈ 36.1 µM)
MIC [3]: 25 µg/mL (≈ 70.5 µM)
MIC50 [3]: 12.8 µg/mL (≈ 36.1 µM)
MFC [4]: 25 µg/mL (≈ 70.5 µM)
MIC [4]: 25 µg/mL (≈ 70.5 µM)
MIC50 [4]: 12.8 µg/mL (≈ 36.1 µM)
zone of inhibition at 100 µg/mL [5]: 14 mm
zone of inhibition at 100 µg/mL [6]: 16 mm
zone of inhibition at 100 µg/mL [7]: 19 mm
zone of inhibition at 100 µg/mL [8]: 15 mm
MIC [9]: 25 µg/mL (≈ 70.5 µM)
MIC50 [9]: 12.8 µg/mL (≈ 36.1 µM)
MFC [10]: 100 µg/mL (≈ 282 µM)
MIC [10]: 25 µg/mL (≈ 70.5 µM)
MIC50 [10]: 25.6 µg/mL (≈ 72.2 µM)
zone of inhibition at 100 µg/mL [11]: 20 mm
MIC [12]: 25 µg/mL (≈ 70.5 µM)
MIC50 [12]: 12.8 µg/mL (≈ 36.1 µM)

Compound: CCCCN(CCCC)Cc1cccc(/C=N\NC(=O)c2ccncc2)c1OCC
zone of inhibition at 100 µg/mL [1]: 23 mm
MIC [2]: 12.5 µg/mL (≈ 30.4 µM)
MIC50 [2]: 6.4 µg/mL (≈ 15.6 µM)
MIC [3]: 12.5 µg/mL (≈ 30.4 µM)
MIC50 [3]: 6.4 µg/mL (≈ 15.6 µM)
MFC [4]: 100 µg/mL (≈ 244 µM)
MIC [4]: 25 µg/mL (≈ 60.9 µM)
MIC50 [4]: 12.8 µg/mL (≈ 31.2 µM)
zone of inhibition at 100 µg/mL [5]: 15 mm
zone of inhibition at 100 µg/mL [6]: 19 mm
zone of inhibition at 100 µg/mL [7]: 21 mm
zone of inhibition at 100 µg/mL [8]: 15 mm
MIC [9]: 12.5 µg/mL (≈ 30.4 µM)
MIC50 [9]: 6.4 µg/mL (≈ 15.6 µM)
MFC [10]: 100 µg/mL (≈ 244 µM)
MIC [10]: 12.5 µg/mL (≈ 30.4 µM)
MIC50 [10]: 12.8 µg/mL (≈ 31.2 µM)
zone of inhibition at 100 µg/mL [11]: 24 mm
MIC [12]: 25 µg/mL (≈ 60.9 µM)
MIC50 [12]: 12.8 µg/mL (≈ 31.2 µM)

Compound: CCOc1c(/C=N\NC(=O)c2ccncc2)cccc1CN1CCCCC1
zone of inhibition at 100 µg/mL [1]: 25 mm
MIC [2]: 12.5 µg/mL (≈ 34.1 µM)
MIC50 [2]: 6.4 µg/mL (≈ 17.5 µM)
MIC [3]: 12.5 µg/mL (≈ 34.1 µM)
MIC50 [3]: 6.4 µg/mL (≈ 17.5 µM)
MFC [4]: 100 µg/mL (≈ 273 µM)
MIC [4]: 12.5 µg/mL (≈ 34.1 µM)
MIC50 [4]: 12.8 µg/mL (≈ 34.9 µM)
zone of inhibition at 100 µg/mL [5]: 16 mm
zone of inhibition at 100 µg/mL [6]: 20 mm
zone of inhibition at 100 µg/mL [7]: 23 mm
zone of inhibition at 100 µg/mL [8]: 16 mm
MIC [9]: 12.5 µg/mL (≈ 34.1 µM)
MIC50 [9]: 6.4 µg/mL (≈ 17.5 µM)
MFC [10]: 100 µg/mL (≈ 273 µM)
MIC [10]: 12.5 µg/mL (≈ 34.1 µM)
MIC50 [10]: 12.8 µg/mL (≈ 34.9 µM)
zone of inhibition at 100 µg/mL [11]: 25 mm
MIC [12]: 25 µg/mL (≈ 68.2 µM)
MIC50 [12]: 12.8 µg/mL (≈ 34.9 µM)

Compound: CCOc1c(/C=N\NC(=O)c2ccncc2)cccc1CN(C)C
zone of inhibition at 100 µg/mL [1]: 21 mm
MIC [2]: 25 µg/mL (≈ 76.6 µM)
MIC50 [2]: 12.8 µg/mL (≈ 39.2 µM)
MIC [3]: 25 µg/mL (≈ 76.6 µM)
MIC50 [3]: 12.8 µg/mL (≈ 39.2 µM)
MFC [4]: 100 µg/mL (≈ 306 µM)
MIC [4]: 25 µg/mL (≈ 76.6 µM)
MIC50 [4]: 12.8 µg/mL (≈ 39.2 µM)
zone of inhibition at 100 µg/mL [5]: 14 mm
zone of inhibition at 100 µg/mL [6]: 15 mm
zone of inhibition at 100 µg/mL [7]: 17 mm
zone of inhibition at 100 µg/mL [8]: 13 mm
MIC [9]: 25 µg/mL (≈ 76.6 µM)
MIC50 [9]: 12.8 µg/mL (≈ 39.2 µM)
MFC [10]: 100 µg/mL (≈ 306 µM)
MIC [10]: 25 µg/mL (≈ 76.6 µM)
MIC50 [10]: 25.6 µg/mL (≈ 78.4 µM)
zone of inhibition at 100 µg/mL [11]: 20 mm
MIC [12]: 50 µg/mL (≈ 153 µM)
MIC50 [12]: 12.8 µg/mL (≈ 39.2 µM)

Compound: CCOc1c(/C=N\NC(=O)c2ccncc2)cccc1CN1CCCC1
zone of inhibition at 100 µg/mL [1]: 26 mm
MIC [2]: 12.5 µg/mL (≈ 35.5 µM)
MIC50 [2]: 6.4 µg/mL (≈ 18.2 µM)
MIC [3]: 12.5 µg/mL (≈ 35.5 µM)
MIC50 [3]: 6.4 µg/mL (≈ 18.2 µM)
MFC [4]: 25 µg/mL (≈ 70.9 µM)
MIC [4]: 12.5 µg/mL (≈ 35.5 µM)
MIC50 [4]: 6.4 µg/mL (≈ 18.2 µM)
zone of inhibition at 100 µg/mL [5]: 19 mm
zone of inhibition at 100 µg/mL [6]: 20 mm
zone of inhibition at 100 µg/mL [7]: 22 mm
zone of inhibition at 100 µg/mL [8]: 18 mm
MIC [9]: 6.25 µg/mL (≈ 17.7 µM)
MIC50 [9]: 3.2 µg/mL (≈ 9.08 µM)
MFC [10]: 100 µg/mL (≈ 284 µM)
MIC [10]: 12.5 µg/mL (≈ 35.5 µM)
MIC50 [10]: 12.8 µg/mL (≈ 36.3 µM)
zone of inhibition at 100 µg/mL [11]: 27 mm
MIC [12]: 25 µg/mL (≈ 70.9 µM)
MIC50 [12]: 12.8 µg/mL (≈ 36.3 µM)

The next compounds have a lower MIC [2] than those just listed; values first:

MIC [2]: 6.25 µg/mL (≈ 16.4 µM)
MIC50 [2]: 3.2 µg/mL (≈ 8.39 µM)
MIC [3]: 12.5 µg/mL (≈ 32.8 µM)
MIC50 [3]: 6.4 µg/mL (≈ 16.8 µM)
MIC [4]: 12.5 µg/mL (≈ 32.8 µM)
MIC50 [4]: 6.4 µg/mL (≈ 16.8 µM)
MIC [9]: 6.25 µg/mL (≈ 16.4 µM)
MIC50 [9]: 3.2 µg/mL (≈ 8.39 µM)
MIC [10]: 12.5 µg/mL (≈ 32.8 µM)
MIC50 [10]: 12.8 µg/mL (≈ 33.6 µM)
MIC [12]: 12.5 µg/mL (≈ 32.8 µM)
MIC50 [12]: 6.4 µg/mL (≈ 16.8 µM)
Compound: CCOc1c(/C=N\NC(=O)c2ccncc2)cccc1CN1CCN(C)CC1
zone of inhibition at 100 µg/mL [1]: 33 mm
MFC [4]: 25 µg/mL (≈ 65.5 µM)
zone of inhibition at 100 µg/mL [5]: 20 mm
zone of inhibition at 100 µg/mL [6]: 22 mm
zone of inhibition at 100 µg/mL [7]: 26 mm
zone of inhibition at 100 µg/mL [8]: 22 mm
MFC [10]: 50 µg/mL (≈ 131 µM)
zone of inhibition at 100 µg/mL [11]: 32 mm

MIC [2]: 3.12 µg/mL (≈ 8.49 µM)
MIC50 [2]: 3.2 µg/mL (≈ 8.71 µM)
MIC [3]: 12.5 µg/mL (≈ 34 µM)
MIC50 [3]: 6.4 µg/mL (≈ 17.4 µM)
MIC [4]: 12.5 µg/mL (≈ 34 µM)
MIC50 [4]: 6.4 µg/mL (≈ 17.4 µM)
MIC [9]: 6.25 µg/mL (≈ 17 µM)
MIC50 [9]: 3.2 µg/mL (≈ 8.71 µM)
MIC [10]: 12.5 µg/mL (≈ 34 µM)
MIC50 [10]: 12.8 µg/mL (≈ 34.8 µM)
MIC [12]: 12.5 µg/mL (≈ 34 µM)
MIC50 [12]: 6.4 µg/mL (≈ 17.4 µM)
Compound: CCOc1c(/C=N\NC(=O)c2ccncc2)cccc1CN1CCNCC1
zone of inhibition at 100 µg/mL [1]: 34 mm
MFC [4]: 25 µg/mL (≈ 68 µM)
zone of inhibition at 100 µg/mL [5]: 23 mm
zone of inhibition at 100 µg/mL [6]: 23 mm
zone of inhibition at 100 µg/mL [7]: 27 mm
zone of inhibition at 100 µg/mL [8]: 24 mm
MFC [10]: 50 µg/mL (≈ 136 µM)
zone of inhibition at 100 µg/mL [11]: 33 mm
